In US11963533B2 (priority 2017, dated 2024):
Like-named read-outs stand apart in the source and are kept apart here.

Tests used:
[1] = test system: C. Las (Candidatus Liberibacter asiaticus); type: in vivo; conditions: HLB-positive citrus plants, trunk delivery
[2] = test system: C. Lso (Ca. L. solanacearum); type: in vivo, Candidatus Liberibacter solanacearum
sweet orange leaves = conditions: in vivo
[3] = test system: C. Lso (Ca. L. solanacearum); type: in vivo, Candidatus Liberibacter solanacearum; remark: listed apart in the source
Ca. L. solanacearum = type: in vivo, Candidatus Liberibacter solanacearum; conditions: 30 μM peptide by stem injection; for growth of infected plants compared to mock treatment: Ca. L. solanacearum-infected Nb plants, 3 weeks of treatment, FIG. 3A; for bacterial titer compared to plants treated with mock solution: Ca. L. solanacearum-infected plants, FIGS. 3B and 7

Row | Molecule | bacteria detected in the treated trees [1] | reduction of bacterial titer of treated trees ([1]; FIG. 4: 100 nM or 10 μM once, 5 weeks) | symptoms of new shoots and leaves from the treated trees ([1]; mock treated plants still have yellow patch symptoms) | disease symptom ([2]; C. Lso-infected potato, FIG. 5) | yield of tuber production ([2]; C. Lso-infected potato, FIG. 5) | plant growth after C. Lso infection ([2]; potato plants pre-treated with SAMP 10 μM vs mock, exposed to C. Lso positive potato psyllids 5 days, 3 weeks post infection) | time to complete digestion by pepsin (human protease pepsin) [min] | cell death in leaves (sweet orange leaves) | disease symptom ([3]; C. Lso-infected tomato, FIG. 6) | plant growth after C. Lso infection ([3]; tomato plants pre-treated with SAMP vs mock, exposed to C. Lso positive potato psyllids 5 days, 4 weeks post infection) | growth of infected plants compared to mock treatment (Ca. L. solanacearum) | bacterial titer compared to plants treated with mock solution (Ca. L. solanacearum)
1 | SAMP | No bacteria were detected | 30-100 folds | no longer symptomatic | clearly inhibited | increased | grew better | ≤ 45 | No cell death | largely reduced | grew better | – | –
2 | CghSAMPa: stable antimicrobial peptide from Eremocitrus glauca x citrus sp., SEQ ID NO: 1, expressed and purified in E. coli (protein) MCCNRGKNVSIENLHQGFTHIFESTFESTEGVAEYVSHPSHVEYANLFLANLEKVLVIDYKPTTVRV | – | – | – | – | – | – | – | – | – | – | grow much better | much lower
3 | CghSAMPb: stable antimicrobial peptide from Eremocitrus glauca x citrus sp., SEQ ID NO: 2, expressed and purified in E. coli (protein) MCCNRGKNVSIENLHQGFPHLFEFTFESTEGVAEYVSHPAHVEYANLFLANLEKVLVIDYKPTTVRV | – | – | – | – | – | – | – | – | – | – | grow much better | much lower
